Test results reported in patent US5210193A, “Piperazine derivatives” (American Cyanamid Company, priority 1990, dated 1993).
Values after ≈ are worked out from the molar mass of the structure shown. Read-outs that look alike come from different tables or passages of the source.

How the values were obtained:
Assay in all cases: in vitro antibacterial MIC, agar plate dilution
Format in all cases: cell-based
Citrobacter div. K 82-24 = details: Citrobacter, DIV.K8224, 18 h, 35° C., read-out: MIC
In short: (§1)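 Agar plate dilution on Mueller-Hinton agar, inoculum about 10^4 CFU per spot applied with a Steers replicator. MIC (mcg/ml) is the lowest compound concentration preventing visible growth after 18 h at 35 °C.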

[1] = tested on: Enterobacter cloacae K 84-10; details: Enterobacter cloacae, K8410, 18 h, 35° C., read-out: MIC
In short: as §1

[2] = tested on: Enterobacter cloacae VGH 84-39; details: Enterobacter cloacae, VGH8439, 18 h, 35° C., read-out: MIC
In short: as §1

[3] = tested on: Escherichia coli CMC 84-11; details: Escherichia coli, CMC8411, 18 h, 35° C., read-out: MIC
In short: as §1

[4] = tested on: Escherichia coli CMC 84-50; details: Escherichia coli, CMC8450, 18 h, 35° C., read-out: MIC
In short: as §1

Escherichia coli LL 311 = details: Escherichia coli, LL311, 18 h, 35° C., read-out: MIC
In short: as §1

[5] = tested on: Escherichia coli VGH 84-19; details: Escherichia coli, VGH8419, 18 h, 35° C., read-out: MIC
In short: as §1

[6] = tested on: Klebsiella pneumoniae CMC 84-31; details: Klebsiella pneumoniae, CMC8431, 18 h, 35° C., read-out: MIC
In short: as §1

[7] = tested on: Klebsiella pneumoniae IO 83-5; details: Klebsiella pneumoniae, IO835, 18 h, 35° C., read-out: MIC
In short: as §1

[8] = tested on: Klebsiella pneumoniae MOR 84-24; details: Klebsiella pneumoniae, MOR8424, 18 h, 35° C., read-out: MIC
In short: as §1

[9] = tested on: Morganella morganii CMC 84-37; details: Morganella morganii, CMC8437, 18 h, 35° C., read-out: MIC
In short: as §1

[10] = tested on: Morganella morganii CMC 84-38; details: Morganella morganii, CMC8438, 18 h, 35° C., read-out: MIC
In short: as §1

[11] = tested on: Proteus rettgeri CMC 84-41; details: Providencia rettgeri, CMC8441, 18 h, 35° C., read-out: MIC
In short: as §1

[12] = tested on: Proteus rettgeri IO 83-21; details: Providencia rettgeri, IO8321, 18 h, 35° C., read-out: MIC
In short: as §1

[13] = tested on: Providencia stuarti CMC 83-3; details: Providencia, CMC833, 18 h, 35° C., read-out: MIC
In short: as §1

[14] = tested on: Pseudomonas aeruginosa LL-1244; details: Pseudomonas aeruginosa, LL1244, 18 h, 35° C., read-out: MIC
In short: as §1

[15] = tested on: Pseudomonas aeruginosa VGH 84-3; details: Pseudomonas aeruginosa, VGH843, 18 h, 35° C., read-out: MIC
In short: as §1

[16] = tested on: Serratia marcescens CMC 83-74; details: Serratia marcescens, CMC8374, 18 h, 35° C., read-out: MIC
In short: as §1

[17] = tested on: Serratia marcescens MOR 84-41; details: Serratia marcescens, MOR8441, 18 h, 35° C., read-out: MIC
In short: as §1

[18] = tested on: Serratia marcescens VGH 84-30; details: Serratia marcescens, VGH8430, 18 h, 35° C., read-out: MIC
In short: as §1

[19] = tested on: Staphylococcus aureus ATTC 29213; details: 35° C.
In short: as §1

[20] = tested on: Staphylococcus aureus CMC 83-131; details: Staphylococcus aureus, CMC83131, 18 h, 35° C., read-out: MIC
In short: as §1

[21] = tested on: Staphylococcus aureus K 82-26; details: Staphylococcus aureus, K8226, 18 h, 35° C., read-out: MIC
In short: as §1

[22] = tested on: Staphylococcus aureus Smith; details: Staphylococcus aureus, 18 h, 35° C., read-out: MIC
In short: as §1

[23] = tested on: Staphylococcus aureus VGH 84-45; details: Staphylococcus aureus, VGH8445, 18 h, 35° C., read-out: MIC
In short: as §1

[24] = tested on: Staphylococcus aureus VGH 84-47; details: Staphylococcus aureus, VGH8447, 18 h, 35° C., read-out: MIC
In short: as §1

[25] = tested on: Streptococcus faecalis CMC 83-120; details: Enterococcus faecalis, CMC83120, 18 h, 35° C., read-out: MIC
In short: as §1

[26] = tested on: Streptococcus faecalis UCI 85-30; details: Enterococcus faecalis, UCI8530, 18 h, 35° C., read-out: MIC
In short: as §1

[27] = tested on: Streptococcus faecalis VGH 84-65; details: Enterococcus faecalis, VGH8465, 18 h, 35° C., read-out: MIC
In short: as §1

[28] = tested on: Streptococcus faecalis VGH 84-69; details: Enterococcus faecalis, VGH8469, 18 h, 35° C., read-out: MIC
In short: as §1

[29] = tested on: Escherichia coli ATCC 25922; details: 35° C.
In short: as §1

[30] = Staphylococcus aureus, ATTC29213, 18 h, read-out: MIC
[31] = Escherichia coli, ATCC25922, 18 h, read-out: MIC

| SMILES | MIC (Citrobacter div. K 82-24) [µg/mL] | MIC [1] [µg/mL] | MIC [2] [µg/mL] | MIC [3] [µg/mL] | MIC [4] [µg/mL] | MIC (Escherichia coli LL 311) [µg/mL] | MIC [5] [µg/mL] | MIC [6] [µg/mL] | MIC [7] [µg/mL] | MIC [8] [µg/mL] | MIC [10] [µg/mL] | MIC [11] [µg/mL] | MIC [12] [µg/mL] | MIC [13] [µg/mL] | MIC [14] [µg/mL] | MIC [15] [µg/mL] | MIC [16] [µg/mL] | MIC [17] [µg/mL] | MIC [18] [µg/mL] | MIC ([19]; 18 hours) [µg/mL] | other results |
| --- | --- | --- | --- | --- | --- | --- | --- | --- | --- | --- | --- | --- | --- | --- | --- | --- | --- | --- | --- | --- | --- |
| O=C(O)c1cn(C2CC2)c2cc(N3CCNC(c4cc[nH]n4)C3)c(F)cc2c1=O (stereo not drawn) [Example 121, 1-Cyclopropyl-6-fluoro-1,4-dihydro-4-oxo-7-[3-(1H-pyrazol-3-yl)-1-piperazinyl]-3-quinolinecarboxylic acid] | 0.25 (≈ 0.629 µM) | 0.25 (≈ 0.629 µM) | 0.5 (≈ 1.26 µM) | 0.06 (≈ 0.151 µM) | 0.25 (≈ 0.629 µM) | 0.12 (≈ 0.302 µM) | 0.25 (≈ 0.629 µM) | 0.25 (≈ 0.629 µM) | 1 (≈ 2.52 µM) | 1 (≈ 2.52 µM) | 0.5 (≈ 1.26 µM) | 0.5 (≈ 1.26 µM) | 1 (≈ 2.52 µM) | > 16 | 16 (≈ 40.3 µM) | > 16 | > 16 | 1 (≈ 2.52 µM) | 32 (≈ 80.5 µM) | 2 (≈ 5.03 µM) | MIC [9]: 1 µg/mL (≈ 2.52 µM); MIC [19, 30]: 1 µg/mL (≈ 2.52 µM); MIC [20]: 2 µg/mL (≈ 5.03 µM); MIC [21]: 1 µg/mL (≈ 2.52 µM); MIC [22]: 0.12 µg/mL (≈ 0.302 µM); MIC [23]: 0.5 µg/mL (≈ 1.26 µM); MIC [24]: 1 µg/mL (≈ 2.52 µM); MIC [25]: 5 µg/mL (≈ 12.6 µM); MIC [26]: 2 µg/mL (≈ 5.03 µM); MIC [27]: 2 µg/mL (≈ 5.03 µM); MIC [28]: 2 µg/mL (≈ 5.03 µM) |
| CCn1cc(C(=O)O)c(=O)c2cc(F)c(N3CCNC(c4cccnc4)C3)cc21 (stereo not drawn) [Example 122] | 2 (≈ 5.05 µM) | 1 (≈ 2.52 µM) | 2 (≈ 5.05 µM) | 0.25 (≈ 0.631 µM) | 2 (≈ 5.05 µM) | 0.25 (≈ 0.631 µM) | 1 (≈ 2.52 µM) | 4 (≈ 10.1 µM) | 2 (≈ 5.05 µM) | 4 (≈ 10.1 µM) | 1 (≈ 2.52 µM) | 0.25 (≈ 0.631 µM) | 4 (≈ 10.1 µM) | > 16 | 32 (≈ 80.7 µM) | > 16 | > 16 | 4 (≈ 10.1 µM) | 32 (≈ 80.7 µM) | 1 (≈ 2.52 µM) | MIC [9]: 0.25 µg/mL (≈ 0.631 µM); MIC [19, 30]: 0.5 µg/mL (≈ 1.26 µM); MIC [20]: 8 µg/mL (≈ 20.2 µM); MIC [21]: 1 µg/mL (≈ 2.52 µM); MIC [22]: 0.12 µg/mL (≈ 0.303 µM); MIC [23]: 0.25 µg/mL (≈ 0.631 µM); MIC [24]: 1 µg/mL (≈ 2.52 µM); MIC [25]: 8 µg/mL (≈ 20.2 µM); MIC [26]: 8 µg/mL (≈ 20.2 µM); MIC [27]: 8 µg/mL (≈ 20.2 µM); MIC [28]: 8 µg/mL (≈ 20.2 µM) |
| CCn1cc(C(=O)O)c(=O)c2cc(F)c(N3CCNC(c4ccncc4)C3)cc21 (stereo not drawn) [Example 123] | 4 (≈ 10.1 µM) | 2 (≈ 5.05 µM) | 4 (≈ 10.1 µM) | 2 (≈ 5.05 µM) | 4 (≈ 10.1 µM) | 1 (≈ 2.52 µM) | 2 (≈ 5.05 µM) | 4 (≈ 10.1 µM) | 8 (≈ 20.2 µM) | 8 (≈ 20.2 µM) | 2 (≈ 5.05 µM) | 2 (≈ 5.05 µM) | 8 (≈ 20.2 µM) | > 16 | 64 (≈ 161 µM) | > 16 | > 16 | 8 (≈ 20.2 µM) | 64 (≈ 161 µM) | 1 (≈ 2.52 µM) | MIC [29, 31]: 1 µg/mL (≈ 2.52 µM); MIC [19, 30]: 0.5 µg/mL (≈ 1.26 µM); MIC [20]: 2 µg/mL (≈ 5.05 µM); MIC [21]: 16 µg/mL (≈ 40.4 µM); MIC [22]: 0.5 µg/mL (≈ 1.26 µM); MIC [23]: 0.5 µg/mL (≈ 1.26 µM); MIC [24]: 2 µg/mL (≈ 5.05 µM); MIC [25]: > 16 µg/mL; MIC [26]: > 16 µg/mL; MIC [27]: 8 µg/mL (≈ 20.2 µM); MIC [28]: 16 µg/mL (≈ 40.4 µM) |
| CN1CCN(c2cc3c(cc2F)c(=O)c(C(=O)O)cn3C2CC2)CC1C1CC1 (stereo not drawn) [Example 125, 1-Cyclopropyl-7-(3-cyclopropyl-4-methyl-1-piperazinyl) -6-fluoro-1,4-dihydro-4-oxo-3-quinolinecarboxylic acid] | 0.25 (≈ 0.649 µM) | 0.06 (≈ 0.156 µM) | 0.5 (≈ 1.3 µM) | 0.06 (≈ 0.156 µM) | 0.25 (≈ 0.649 µM) | 0.06 (≈ 0.156 µM) | 0.25 (≈ 0.649 µM) | 0.25 (≈ 0.649 µM) | 0.5 (≈ 1.3 µM) | 0.5 (≈ 1.3 µM) | 0.5 (≈ 1.3 µM) | 0.25 (≈ 0.649 µM) | 1 (≈ 2.59 µM) | > 16 | 16 (≈ 41.5 µM) | > 16 | > 16 | 1 (≈ 2.59 µM) | 8 (≈ 20.8 µM) | 0.5 (≈ 1.3 µM) | MIC ([29]; 18 hours): 0.06 µg/mL (≈ 0.156 µM); MIC [29, 31]: 0.03 µg/mL (≈ 0.0778 µM); MIC [9]: 0.25 µg/mL (≈ 0.649 µM); MIC [19, 30]: 0.25 µg/mL (≈ 0.649 µM); MIC [20]: 1 µg/mL (≈ 2.59 µM); MIC [21]: 4 µg/mL (≈ 10.4 µM); MIC [22]: 0.12 µg/mL (≈ 0.311 µM); MIC [23]: 0.12 µg/mL (≈ 0.311 µM); MIC [24]: 0.5 µg/mL (≈ 1.3 µM); MIC [25]: 4 µg/mL (≈ 10.4 µM); MIC [26]: 8 µg/mL (≈ 20.8 µM); MIC [27]: 4 µg/mL (≈ 10.4 µM); MIC [28]: 4 µg/mL (≈ 10.4 µM) |
